Activity calls are given as the source filed them.
What was measured:
Candida albicans = experiment: Candida growth effect without fluconazole – C. albicans CaCi-2, dry powder, counter-screen for antifungal drug resistance project, dose response (AID 488802); assay type: functional, organism-based
Caspase-3 = target: T1, Caspase-3 (Homo sapiens, UniProt P42574); experiment: inhibition of recombinant caspase-3 activity – biochemical, luminescence, set 2, selectivity assay for SENP protease inhibitor project, SAR follow-up (AID 588599); assay type: functional
T1 sequence (P42574 whole entry): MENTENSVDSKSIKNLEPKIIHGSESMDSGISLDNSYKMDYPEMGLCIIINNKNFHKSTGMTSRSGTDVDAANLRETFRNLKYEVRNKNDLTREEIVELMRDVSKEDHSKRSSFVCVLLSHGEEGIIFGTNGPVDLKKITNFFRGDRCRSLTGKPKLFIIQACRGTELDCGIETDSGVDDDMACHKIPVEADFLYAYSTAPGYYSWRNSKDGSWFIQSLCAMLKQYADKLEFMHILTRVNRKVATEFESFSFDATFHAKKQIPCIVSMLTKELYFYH

[1] = target: T2, Sentrin-specific protease 8 (Homo sapiens, UniProt Q96LD8); experiment: inhibition of sentrin protease 8 – biochemical, luminescence, set 2, SAR follow-up (AID 588601); assay type: functional
T2 sequence (Q96LD8 whole entry): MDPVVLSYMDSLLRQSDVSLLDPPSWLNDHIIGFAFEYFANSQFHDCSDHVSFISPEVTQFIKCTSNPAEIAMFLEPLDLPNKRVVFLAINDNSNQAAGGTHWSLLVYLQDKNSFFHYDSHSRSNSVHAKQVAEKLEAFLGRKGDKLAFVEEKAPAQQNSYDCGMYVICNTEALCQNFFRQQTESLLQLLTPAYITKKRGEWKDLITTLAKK

[2] = target: T3, Sentrin-specific protease 7 (Homo sapiens, UniProt Q9BQF6); experiment: inhibition of human SENP7 cleavage activity – biochemical, luminescence, set 2, SAR follow-up (AID 588600); assay type: functional
T3 sequence (Q9BQF6 whole entry): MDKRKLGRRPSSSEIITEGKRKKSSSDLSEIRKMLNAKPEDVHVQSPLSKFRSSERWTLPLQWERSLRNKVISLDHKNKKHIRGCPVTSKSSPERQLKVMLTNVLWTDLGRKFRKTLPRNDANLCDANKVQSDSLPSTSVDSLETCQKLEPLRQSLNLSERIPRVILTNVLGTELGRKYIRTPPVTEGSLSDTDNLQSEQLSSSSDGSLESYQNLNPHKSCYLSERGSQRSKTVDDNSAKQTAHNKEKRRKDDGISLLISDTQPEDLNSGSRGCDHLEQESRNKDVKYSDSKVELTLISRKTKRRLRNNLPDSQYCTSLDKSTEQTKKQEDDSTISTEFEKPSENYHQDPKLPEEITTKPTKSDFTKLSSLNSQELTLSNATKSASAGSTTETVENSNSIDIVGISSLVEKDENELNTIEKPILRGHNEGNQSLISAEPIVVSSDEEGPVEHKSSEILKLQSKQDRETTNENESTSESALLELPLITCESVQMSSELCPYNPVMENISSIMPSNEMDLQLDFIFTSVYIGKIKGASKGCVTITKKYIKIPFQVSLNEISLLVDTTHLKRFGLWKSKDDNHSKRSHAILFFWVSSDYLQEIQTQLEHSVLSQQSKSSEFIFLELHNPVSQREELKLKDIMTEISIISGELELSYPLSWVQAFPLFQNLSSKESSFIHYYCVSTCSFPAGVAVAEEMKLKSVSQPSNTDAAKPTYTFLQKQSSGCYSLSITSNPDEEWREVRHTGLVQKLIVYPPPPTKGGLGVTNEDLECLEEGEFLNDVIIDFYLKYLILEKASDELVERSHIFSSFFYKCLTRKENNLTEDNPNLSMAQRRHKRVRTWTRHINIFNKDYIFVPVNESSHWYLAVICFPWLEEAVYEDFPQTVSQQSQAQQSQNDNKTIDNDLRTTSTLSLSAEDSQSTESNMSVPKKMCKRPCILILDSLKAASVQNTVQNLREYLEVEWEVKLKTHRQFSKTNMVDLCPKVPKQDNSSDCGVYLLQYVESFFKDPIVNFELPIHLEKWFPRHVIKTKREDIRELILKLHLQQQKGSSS

[3] = target: T4, Sentrin-specific protease 6 (Homo sapiens, UniProt Q9GZR1); experiment: inhibition of human SENP6 catalytic domain – biochemical, luminescence, set 2, SAR follow-up (AID 588598); assay type: functional
T4 sequence (Q9GZR1 whole entry): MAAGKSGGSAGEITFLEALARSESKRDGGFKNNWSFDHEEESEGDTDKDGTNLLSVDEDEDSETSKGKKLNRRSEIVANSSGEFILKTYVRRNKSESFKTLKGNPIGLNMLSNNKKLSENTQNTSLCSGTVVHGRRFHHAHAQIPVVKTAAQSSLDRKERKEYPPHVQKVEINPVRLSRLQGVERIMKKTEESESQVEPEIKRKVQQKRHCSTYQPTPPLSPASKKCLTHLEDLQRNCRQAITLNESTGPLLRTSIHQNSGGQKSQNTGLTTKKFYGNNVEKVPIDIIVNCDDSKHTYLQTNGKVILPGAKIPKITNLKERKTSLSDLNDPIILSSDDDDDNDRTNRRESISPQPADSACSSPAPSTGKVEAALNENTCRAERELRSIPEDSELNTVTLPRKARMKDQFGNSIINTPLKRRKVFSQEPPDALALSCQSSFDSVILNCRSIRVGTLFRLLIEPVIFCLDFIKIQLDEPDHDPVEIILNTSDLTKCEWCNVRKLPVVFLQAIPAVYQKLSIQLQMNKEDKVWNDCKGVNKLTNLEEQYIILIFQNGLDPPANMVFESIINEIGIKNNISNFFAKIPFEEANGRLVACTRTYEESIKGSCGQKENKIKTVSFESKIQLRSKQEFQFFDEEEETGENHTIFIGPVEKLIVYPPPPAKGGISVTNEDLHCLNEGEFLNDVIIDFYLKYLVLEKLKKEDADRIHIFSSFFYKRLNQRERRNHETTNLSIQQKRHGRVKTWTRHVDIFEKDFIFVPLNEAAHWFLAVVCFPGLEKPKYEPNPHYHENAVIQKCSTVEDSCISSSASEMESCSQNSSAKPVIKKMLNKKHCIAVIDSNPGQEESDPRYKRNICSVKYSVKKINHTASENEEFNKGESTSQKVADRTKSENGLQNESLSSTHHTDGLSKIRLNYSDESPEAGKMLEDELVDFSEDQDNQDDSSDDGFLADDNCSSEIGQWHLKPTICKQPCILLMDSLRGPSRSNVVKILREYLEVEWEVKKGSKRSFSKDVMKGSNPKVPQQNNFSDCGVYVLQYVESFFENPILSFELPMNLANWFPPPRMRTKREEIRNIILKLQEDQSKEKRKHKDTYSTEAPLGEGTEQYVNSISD

[4] = target: T5, Microphthalmia-associated transcription factor (Homo sapiens, UniProt O75030); experiment: reducers of TRPM1 reporter luminescence, concentration series – cell-based, SK-MEL-5, cherry-picked, set 3, MITF inhibitor project, dose response (AID 493073); assay type: functional;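 also: SK-MEL-5 melanoma cells with luciferase driven by the MITF target TRPM1 promoter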
T5 sequence (O75030 whole entry): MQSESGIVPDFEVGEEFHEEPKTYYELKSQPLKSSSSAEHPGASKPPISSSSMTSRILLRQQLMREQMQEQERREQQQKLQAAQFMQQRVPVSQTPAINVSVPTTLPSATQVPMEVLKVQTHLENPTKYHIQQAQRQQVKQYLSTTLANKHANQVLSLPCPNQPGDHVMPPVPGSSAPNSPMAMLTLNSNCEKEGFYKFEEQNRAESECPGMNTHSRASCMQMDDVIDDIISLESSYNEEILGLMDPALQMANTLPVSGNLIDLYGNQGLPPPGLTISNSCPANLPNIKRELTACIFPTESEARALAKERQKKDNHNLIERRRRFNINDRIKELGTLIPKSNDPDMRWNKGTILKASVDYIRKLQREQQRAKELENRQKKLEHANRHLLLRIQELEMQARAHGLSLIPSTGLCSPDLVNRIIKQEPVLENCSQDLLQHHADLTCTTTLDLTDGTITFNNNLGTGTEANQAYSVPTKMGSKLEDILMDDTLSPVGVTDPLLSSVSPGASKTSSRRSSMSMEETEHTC

[5] = concentration-dependent intrinsic compound fluorescence, S. cerevisiae AD/pABC3, flow cytometry, Cherry Pick1 hits, artefact control for antifungal efflux pump inhibitor project, dose response (AID 588620); assay type: functional
INS1 = experiment: INS-1E survival protection against cytokine death – cell-based, luminescence, retest, dose response (AID 449756); assay type: functional; conditions: Rattus norvegicus;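 also: cell death triggered by IL-1 beta plus TNF-alpha plus IFN-gamma mixture; protective hits raise ATP signal compared with cytokine alone wells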
Protein Wnt-3a = Protein Wnt-3a (Mus musculus, UniProt P27467); experiment: antagonism of Wnt3a pathway luciferase reporter – Wnt-LIGHT cells, luminescence, selectivity assay for Gli-SUFU antagonist project, dose response (AID 651570); assay type: functional; conditions: read-out: IC50_Mean;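 also: Wnt-LIGHT reporter cells stimulated with conditioned medium from Wnt3a-producing cells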
Protein Wnt-3a, sequence (P27467 whole entry): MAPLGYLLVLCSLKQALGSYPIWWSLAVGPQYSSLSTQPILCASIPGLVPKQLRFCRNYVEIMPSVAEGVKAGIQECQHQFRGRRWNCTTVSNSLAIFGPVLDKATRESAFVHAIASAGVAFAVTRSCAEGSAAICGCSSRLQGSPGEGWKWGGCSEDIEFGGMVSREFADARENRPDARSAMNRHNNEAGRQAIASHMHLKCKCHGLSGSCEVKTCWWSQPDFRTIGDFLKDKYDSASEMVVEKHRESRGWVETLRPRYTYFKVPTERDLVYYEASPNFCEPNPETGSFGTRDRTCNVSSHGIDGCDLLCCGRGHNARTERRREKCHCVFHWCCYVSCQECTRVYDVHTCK

[6] = viability inhibitors of stage V gametocytes – luminescence, dose response (AID 1117278); assay type: functional, cell-based;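 also: gametocytes exposed to compound for 24 hours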
[7] = viability loss in human Jurkat cells – cell-based, luminescence, cytotoxicity control for P. falciparum gametocyte viability project, dose response (AID 1117277); assay type: functional;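 also: potency reflects loss of cellular ATP meaning fewer viable cells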

Cc1nn(S(C)(=O)=O)c2ccccc12
AC50 (Candida albicans): 46.7 µM (active)

O=C(Nc1nc2ccc(SC(F)F)cc2s1)c1cn(-c2ccccc2)nc1-c1ccc(Cl)cc1
IC50 (Caspase-3): > 99 µM (inactive)
IC50 [1]: > 99 µM (inactive)
IC50 [2]: > 99 µM (inactive)
IC50 [3]: > 99 µM (inactive)

Cc1ccc(-c2c[n+](Cc3ccc(Cl)c(Cl)c3)c3n2CCC3)cc1
AC50 [4]: 3.74 µM (active)
EC50 [5]: 43.6 µM (active)
AC50 (INS1): 3.4 µM (active)
IC50 (Protein Wnt-3a): 24.5 µM (inactive)
IC50 [6]: > 109 µM (inactive)
IC50 [7]: 43.6 µM (inactive)

— ChEMBL document CHEMBL1201862, “PubChem BioAssay data set” (2004)
